{"source": "patent US7321027B2", "about": "“Small technetium-99m and rhenium labeled agents and methods for imaging tumors” (President and Fellows of Harvard College, priority 2000, dated 2008)", "test_system": "MCF-7 human breast cancer cell line", "experiment": "In-vitro tumor-cell uptake, breast cancer cells", "format": "cell-based", "conditions": "37° C., MCF-7 cell line", "procedure": "In-Vitro Tumor-Uptake Studies. Tumor-cell uptake studies in B16/F0 murine melanoma cells were performed with complexes Tc-(Compound A-D and H-M) at 37° C. and 4° C. Additionally, tumor-cell uptake of complex Tc-(Compound A) was investigated in another rapidly dividing MCF-7 human breast cancer cell line.\nIn-Vitro Cell Studies. […] After being washed with 12 mL Dulbecco's Phosphate-Buffered Saline (PBS) (Gibco), pH 7.2 (Ca^2+- and Mg^2+-free; g/L KCl, 0.20; KH2PO4, 0.20; NaCl, 8.00; Na2HPO4, 1.15), the cells were counted and resuspended in 8 mL S-MEM (Gibco) (Ca^2+ free, with reduced Mg^2+ content) and stored at 4° C. until use.\nFor in-vitro tumor-cell accumulation studies, 5×10^6 cells in polypropylene test tubes were incubated at 37° C. or 4° C., with intermittent agitation with 1-2 μCi (5 μL) ^99mTc-complex Tc-(Compound A-D) in a total volume of 350 μL S-MEM. […] Both fractions were counted for radioactivity in a γ-counter (WALLAC, 1480 WIZARD 3″™). The amount of supernatant in the cell pellet was determined to be <1% in separate experiments. The percentage cell uptake of the ^99mTc-complex was calculated as: % uptake=[cpm(pellet)]/[cpm(pellet)+cpm(supernatant)]×100", "data": [{"smiles": "CCN(CC)CCN1CC[S][99Tc]2(=[O])[S]CC[N]2C(=O)C1", "note": "(stereo not shown) [Tc-(Compound A)]", "values": [{"measurement": "maximum cell uptake", "value": 6, "unit": "%"}]}]}
